What was measured:
[1] = test system: Lewis rats; assay: Intraperitoneal glucose tolerance test (IPGTT), blood glucose; assay type: in vivo, rat; conditions: for hypoglycemic activity in IPGTT (improvement of glucose tolerance): 2 mg/kg i.v., Lewis rats
Description: Rats were handled daily to minimize nonspecific stress for more than 7 days before the experiments began. In most experiments, it was necessary to measure blood glucose in fasting animals. For these groups, food was removed at the beginning of the light cycle, 6 hours before glucose levels were tested.
Sixty minutes prior to intraperitoneal glucose tolerance testing (IPGTT), anesthesia of male Lewis rats was induced with isoflurane (3-4% in oxygen) and maintained with 1-2% isoflurane in oxygen.
Anaesthetized rats were administered TBZ at the indicated dose by intravenous (i.v.) injection using the penile vein. […] Control rats received injections of vehicle alone (10% DMSO in Saline).
Animals were fully recovered for at least 30 minutes before receiving IPGTT. In specified experiments, L-DOPA was injected interperitoneal (I.P.) at the specified dose at the initiation of IPGTT. Abnormal glucose tolerance was induced by a single I.P. injection of streptozotocin (STZ) (Sigma Aldrich, St. Louis, Mo.) (50 mg/kg) to animals that had been fasted 4 hours to enhance the efficacy of STZ.
(§1) Blood samples were collected between 12:00 noon and 2:00 p.m. from a superficial blood vessel in the tails of the rats following 6 hours of fasting. The fasting blood glucose (BG) levels of the rats were measured using an Accu-Check blood glucose monitoring system (Roche Diagnostics, Sommerville, N.J.). IPGTT was performed in 6-hour fasting anaesthetized animals as previously described (Weksler-Zangen, et al. 2001). Briefly, after baseline BG measurements, animals received an I.P. injection of 2 grams of glucose/kg body weight. To minimize stress during the procedure, rats were handled by the same operator during acclimatization and later during weighing and IPGTT. Blood samples (50 μl or 150 μl) were collected at baseline and then again 15, 30, 60, 90, and 120 minutes following I.P. injection of glucose. Blood glucose concentrations were measured immediately on these samples and the remainder processed. Plasma was immediately separated by centrifugation at 3,000×g for 15 minutes and then stored at −80° C. until analysis.
Insulin and glucagon concentration measurements in rat plasma were performed by ELISA as per the manufacturer's instructions using kits from Linco Research Inc. (St. Charles, Mich.) and Alpco Diagnostics (Salem, N.H.), respectively. To validate the test, saline injections were performed by the same method. […] The area under the insulin, glucagon and IPGTT glucose concentration×time curve (AUC IPGTT) was calculated by the trapezoidal rule.

[2] = test system: purified rat islets; assay: Static glucose stimulated insulin secretion in purified islets; assay type: cell-based; conditions: 100 nM DTBZ
Description: Rat pancreas digestion, islet isolations, and static insulin secretion assays were performed as previously described (Niswender et al. 2005; Sweet, et al. 2004; Sweet and Gilbert 2006). Purified islets were cultured in RPMI 1640 culture media with 10% fetal bovine serum at 37° C. in humidified air (5% CO2) for 18 to 24 hours. Assessment of insulin secretion in static media was carried out as follows. Islets were handpicked twice into a Petri dishes containing Krebs-Ringer bicarbonate (KRB) buffer (with 3 mM glucose and 0.1% BSA) and pre-incubated for 60 minutes (37° C. and 5% CO2). Subsequently, batches of 100 islets (in quadruplicate) were transferred into 96-well plates containing 200 μl of KRB with either 3 or 20 mM glucose, with or without 100 nM DTBZ and incubated for 60 minutes. The supernatant was removed and the insulin was measured using ELISA (ALPCO, Windham, N.H.).

[3] = biological target: T1, VMAT2 (Rattus norvegicus, UniProt Q01827); assay: Fake Fluorescent Neurotransmitter (FFN) uptake high throughput assay in INS 832/13 cells; assay type: cell-based; conditions: one hour preincubation
T1 construct: endogenous in cells; host or cells: rat INS 832/13 insulinoma cells
Description: A high throughput (HTP) assay was developed to screen for compounds that interact with, e.g., bind to, VMAT2. The HTP exploits a class of compounds called Fake Fluorescent Neurotransmitters (FFN) that share the following characteristics a) low molecular weight and sufficiently hydrophilic to be water soluble; b) in aqueous buffer (pH 7), the excitation maxima is around 380-406 nm and the emission maxima is around 501 nm; and c) similar Kd for VMAT2 as dopamine. To validate the use of these compounds in beta cell lines (positive for VMAT2) the following set of experiments were performed.
The rat INS 832/13 cell line was selected because it secretes insulin in response to glucose concentrations in the physiological range and can be shown to contain VMAT2 by PCR. […] INS cells were grown on cover slips in normal media, then pretreated with and without DTBZ in low glucose media for one hour and then loaded with FFN (GH206). The distribution of fluorescent dye was then examined under a fluorescent microscope. The FFN distributes itself intracellularly in a punctate pattern similar, if not identical, to insulin containing granules of this cell line (data not shown). […] For better quantitation of the fluorescent signal, the cells were grown in […] and the same experiment substantially repeated. Briefly, cells were grown to confluence in complete high glucose media, then incubated for one hour in low glucose media. DTBZ was then added to the wells for one hour, followed with a second one hour incubation with FFN. Wells were then washed and the fluorescent signal (380 exc, 512 emm) measured in a multiwell fluorometer (Synergy HT Multi-Mode Microplate Reader).

[4] = biological target: T2, DPP-IV (Homo sapiens, UniProt P27487); assay: DPP profiling service (BPS Bioscience), in vitro; assay type: biochemical; conditions: concentrations up to 10 μM
T2 construct: purchased BPS Bioscience, Inc. (San Diego, Calif.)
Description: The effect of DTBZ on DDP-IV was determined using the DPP profiling service from BPS Bioscience, Inc. (San Diego, Calif.).

[5] = test system: Lewis rats; assay: Plasma insulin and glucagon during IPGTT; assay type: in vivo, rat; conditions: dopamine i.v. at the same time as glucose
Description: as §1, with “The” for “Blood samples were collected between 12:00 noon and 2:00 p.m. from a superficial blood vessel in the tails of the rats following 6 hours of fasting. The”, “([…],” for “(Weksler-Zangen,”, “-80°” for “−80°”, “analysis. Insulin and glucagon concentration measurements in rat plasma were performed by ELISA as per the manufacturer's instructions using kits from Linco Research Inc. (St. Charles, Mich.) and Alpco Diagnostics (Salem, N.H.), respectively. To validate the test, saline injections were performed by the same method. […] The area under the insulin, glucagon and IPGTT glucose concentration×time curve (AUC IPGTT) was calculated by the trapezoidal rule.” for “analysis.”

T2 sequence (P27487 whole entry, species assumed): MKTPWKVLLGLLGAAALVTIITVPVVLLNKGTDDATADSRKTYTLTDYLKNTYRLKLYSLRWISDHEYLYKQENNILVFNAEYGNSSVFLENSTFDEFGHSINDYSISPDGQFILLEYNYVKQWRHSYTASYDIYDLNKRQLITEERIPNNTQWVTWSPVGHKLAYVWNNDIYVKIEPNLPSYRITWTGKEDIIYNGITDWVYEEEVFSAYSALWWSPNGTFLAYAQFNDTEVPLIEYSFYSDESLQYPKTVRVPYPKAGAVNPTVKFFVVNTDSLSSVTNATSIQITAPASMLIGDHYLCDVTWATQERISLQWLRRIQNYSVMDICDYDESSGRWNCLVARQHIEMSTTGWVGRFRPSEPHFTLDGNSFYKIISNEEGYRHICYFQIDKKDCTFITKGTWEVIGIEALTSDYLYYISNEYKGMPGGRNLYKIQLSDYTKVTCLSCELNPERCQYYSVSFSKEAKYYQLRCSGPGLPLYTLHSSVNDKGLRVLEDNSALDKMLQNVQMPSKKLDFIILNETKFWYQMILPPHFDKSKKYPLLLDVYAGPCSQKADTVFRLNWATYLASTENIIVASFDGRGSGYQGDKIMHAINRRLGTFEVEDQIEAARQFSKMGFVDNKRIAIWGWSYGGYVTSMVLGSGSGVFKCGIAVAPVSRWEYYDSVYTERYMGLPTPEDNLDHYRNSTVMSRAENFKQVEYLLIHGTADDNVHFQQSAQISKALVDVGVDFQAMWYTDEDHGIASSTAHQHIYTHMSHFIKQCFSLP
T1 sequence (Q01827 whole entry): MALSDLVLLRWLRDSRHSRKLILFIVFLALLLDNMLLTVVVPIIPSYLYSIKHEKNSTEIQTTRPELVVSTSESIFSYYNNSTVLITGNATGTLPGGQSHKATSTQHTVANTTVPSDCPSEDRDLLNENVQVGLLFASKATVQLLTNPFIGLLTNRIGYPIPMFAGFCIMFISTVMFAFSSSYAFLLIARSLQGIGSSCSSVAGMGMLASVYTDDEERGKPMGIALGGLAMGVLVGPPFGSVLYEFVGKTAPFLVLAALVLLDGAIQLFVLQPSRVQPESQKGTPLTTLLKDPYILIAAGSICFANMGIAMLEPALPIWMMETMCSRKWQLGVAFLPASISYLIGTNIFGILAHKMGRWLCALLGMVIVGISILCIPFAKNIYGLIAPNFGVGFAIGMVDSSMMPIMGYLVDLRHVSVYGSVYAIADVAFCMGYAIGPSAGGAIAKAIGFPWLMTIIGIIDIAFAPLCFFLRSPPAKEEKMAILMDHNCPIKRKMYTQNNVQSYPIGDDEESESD

COc1ccc(C2CC(O)C(CC(C)C)CN2)cc1OC (racemic) [compound 1]
hypoglycemic activity in IPGTT (improvement of glucose tolerance) [1]: less potent than TBZ

COc1cc2c(cc1OC)[C@H]1C[C@@H](O)[C@H](CC(C)C)CN1CC2 [DTBZ, dihydrotetrabenazine]
enhancement of glucose stimulated insulin secretion ([2]; high glucose (20 mM), 60 minutes): two to three fold | increase in insulin secretion ([2]; low glucose (3 mM)): not statistically significant | block of FFN uptake/transport [3]: able to block uptake of FFN | effect on DPP-IV [4]: no effect

N[C@@H](Cc1ccc(O)c(O)c1)C(=O)O [L-DOPA, L-3,4-dihydroxyphenylalanine]
effect on TBZ-lowered AUC IPGTT ([1]; L-DOPA 6.0 mg/Kg I.P., one hour after TBZ, concurrent with glucose): reverse the effects of TBZ

COC1=CC(=O)N2CCc3cc(OC)c(OC)cc3C2C1 (centres unmarked) [compound 15]
hypoglycemic activity in IPGTT (improvement of glucose tolerance) [1]: active but less potent

NCCc1ccc(O)c(O)c1 [dopamine]
effect on insulin enhancement by TBZ [5]: partially blocked the insulin enhancing effects of TBZ

Source: US9012471B2, “Glucose metabolism modulating compounds” (The Trustees of Columbia University in the City of New York, priority 2008, dated 2015)
